Results from PubChem BioAssay AID248 (DTP/NCI, 2004).
Several values for one entry are separate records, joined by “and”; a condition that tells them apart may be missing. Equal entries are not always repeated. Toxic doses and inconclusive results are not listed. No stated cut-off is given here; in the data, active means T/C of 150% or more; inactive means T/C below 125%.

System: L1210 leukemia ip in BDF1 mice, survival T/C
Assay: NCI In Vivo Anticancer Drug Screen. Data for tumor model L1210 Leukemia (intraperitoneal) in B6D2F1 (BDF1) mice
Settings: endpoint: mean survival time, higher = longer survival
How it was run: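 Value reflects the ratio of survival in compound-treated mice to survival in vehicle-treated controls, with both groups carrying the same transplanted tumor.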

[1] = dose: 75.0 mg/kg/injection, schedule: Q01DX001 (ip), vehicle: other
[2] = dose: 100.0 mg/kg/injection, schedule: Q01DX001 (ip), vehicle: saline
[3] = dose: 100.0 mg/kg/injection, schedule: Q04DX003 (ip), vehicle: saline
[4] = dose: 200.0 mg/kg/injection, schedule: Q01DX001 (ip), vehicle: saline
[5] = dose: 200.0 mg/kg/injection, schedule: Q04DX003 (ip), vehicle: saline
[6] = dose: 100.0 mg/kg/injection, schedule: Q04DX003 (ip), vehicle: Klucel (hydroxypropylcellulose) (HPC)
[7] = dose: 200.0 mg/kg/injection, schedule: Q04DX003 (ip), vehicle: Klucel (hydroxypropylcellulose) (HPC)
[8] = dose: 400.0 mg/kg/injection, schedule: Q04DX003 (ip), vehicle: Klucel (hydroxypropylcellulose) (HPC)

Measured: T/C

O=C(N/N=C/Cc1ccccc1)C(=O)N/N=C/Cc1ccccc1
inactive: dose: 50.0 mg/kg/injection, schedule: Q01DX009 (ip), vehicle: saline with Tween-80 102 % of control | dose: 100.0 mg/kg/injection, schedule: Q01DX009 (ip), vehicle: saline with Tween-80 91 % of control

c1ccc2nc3nc4ccccc4nc3nc2c1
inactive: dose: 5.0 mg/kg/injection, schedule: Q04DX002 (ip), vehicle: gum acacia 90 % of control | dose: 10.0 mg/kg/injection, schedule: Q04DX002 (ip), vehicle: gum acacia 93 % of control | dose: 20.0 mg/kg/injection, schedule: Q04DX002 (ip), vehicle: gum acacia 93 % of control and 94 % of control | [1] 102 % of control | dose: 100.0 mg/kg/injection, schedule: Q04DX002 (ip), vehicle: saline with Tween-80 106 % of control | dose: 150.0 mg/kg/injection, schedule: Q01DX001 (ip), vehicle: other 98 % of control | dose: 200.0 mg/kg/injection, schedule: Q04DX002 (ip), vehicle: saline with Tween-80 100 % of control | dose: 300.0 mg/kg/injection, schedule: Q01DX001 (ip), vehicle: other 103 % of control | dose: 400.0 mg/kg/injection, schedule: Q04DX002 (ip), vehicle: saline with Tween-80 91 % of control

O=S(=O)(O)F
inactive: dose: 50.0 mg/kg/injection, schedule: Q04DX003 (ip), vehicle: saline 96 % of control | [2] 94 % of control | [3] 89 % of control | [4] 94 % of control | [5] 96 % of control

CCC(Cl)COP(=O)(OCC(Cl)CC)OC(CC)P(=O)(OCC(Cl)CC)OCC(Cl)CC (stereo not drawn)
inactive: [6] 93 % of control | [7] 93 % of control | [8] 95 % of control

O=C(O)C1CCCC2C(O)CCC(=O)C12 (stereo not drawn)
inactive: [2] 95 % of control and 107 % of control | dose: 100.0 mg/kg/injection, schedule: Q01DX009 (ip), vehicle: saline sonified 98 % of control | dose: 100.0 mg/kg/injection, schedule: Q04DX003 (ip), vehicle: saline sonified 100 % of control | [4] 104 % of control and 101 % of control | dose: 200.0 mg/kg/injection, schedule: Q01DX009 (ip), vehicle: saline sonified 102 % of control | dose: 200.0 mg/kg/injection, schedule: Q04DX003 (ip), vehicle: saline sonified 92 % of control | dose: 400.0 mg/kg/injection, schedule: Q01DX001 (ip), vehicle: saline 107 % of control and 96 % of control | dose: 400.0 mg/kg/injection, schedule: Q01DX009 (ip), vehicle: saline sonified 93 % of control | dose: 400.0 mg/kg/injection, schedule: Q04DX003 (ip), vehicle: saline sonified 95 % of control

COc1ccc(C(=O)CCC(=O)O)c(C)c1
inactive: dose: 100.0 mg/kg/injection, schedule: Q01DX009 (ip), vehicle: saline 97 % of control | dose: 200.0 mg/kg/injection, schedule: Q01DX009 (ip), vehicle: saline 101 % of control | dose: 400.0 mg/kg/injection, schedule: Q01DX009 (ip), vehicle: saline 105 % of control

C[N+]1(C)C2CC(OC(=O)C(CO)c3ccccc3)CC1C1OC12 (stereo not drawn)
inactive: [1] 106 % of control

O=C(Nc1ccccc1C(F)(F)F)c1ccc(Cl)cc1
inactive: dose: 100.0 mg/kg/injection, schedule: Q01DX009 (ip), vehicle: Klucel (hydroxypropylcellulose) (HPC) 97 % of control | [6] 93 % of control | dose: 200.0 mg/kg/injection, schedule: Q01DX009 (ip), vehicle: Klucel (hydroxypropylcellulose) (HPC) 103 % of control | [7] 99 % of control | dose: 400.0 mg/kg/injection, schedule: Q01DX009 (ip), vehicle: Klucel (hydroxypropylcellulose) (HPC) 94 % of control | [8] 88 % of control

C#CC(CC)(CC)NC(=O)NC(C)(C)C
inactive: dose: 100.0 mg/kg/injection, schedule: Q04DX002 (ip), vehicle: Klucel (hydroxypropylcellulose) (HPC) 98 % of control | dose: 200.0 mg/kg/injection, schedule: Q04DX002 (ip), vehicle: Klucel (hydroxypropylcellulose) (HPC) 102 % of control | dose: 400.0 mg/kg/injection, schedule: Q04DX002 (ip), vehicle: Klucel (hydroxypropylcellulose) (HPC) 86 % of control

Nc1ncnc2nc(-c3ccc(C(=O)c4cccc(NC(=O)Nc5ccc(S(=O)(=O)F)cc5)c4)cc3)[nH]c12
inactive: dose: 37.5 mg/kg/injection, schedule: Q01DX001 (ip), vehicle: saline 95 % of control | dose: 75.0 mg/kg/injection, schedule: Q01DX001 (ip), vehicle: saline 92 % of control | dose: 150.0 mg/kg/injection, schedule: Q01DX001 (ip), vehicle: saline 90 % of control

O=C1OC2CC3CC2C1C3C(=O)N1CCCCC1 (stereo not drawn)
inactive: dose: 100.0 mg/kg/injection, schedule: Q04DX003 (ip), vehicle: saline with Tween-80 115 % of control | [3] 98 % of control | dose: 200.0 mg/kg/injection, schedule: Q04DX003 (ip), vehicle: saline with Tween-80 100 % of control | [5] 96 % of control | dose: 400.0 mg/kg/injection, schedule: Q04DX003 (ip), vehicle: saline with Tween-80 100 % of control | dose: 400.0 mg/kg/injection, schedule: Q04DX003 (ip), vehicle: saline 96 % of control

O=C(NCCO)C(=O)NCCO
inactive: dose: 100.0 mg/kg/injection, schedule: Q04DX002 (ip), vehicle: saline 115 % of control | dose: 200.0 mg/kg/injection, schedule: Q04DX002 (ip), vehicle: saline 110 % of control | dose: 400.0 mg/kg/injection, schedule: Q04DX002 (ip), vehicle: saline 96 % of control
